The data set is described as follows: Human HepG2 cell viability assay in 384 well format. Type of data set: toxicity, cell-based. Also noted: dose 125 nL, time 70.5 hour; cytotoxicity at 70.5 h: concentration not given beside the values. Particulars: HepG2 cells, read-out: Inhibition.

Structures are written as SMILES.

Consider `CNc1[nH]nc(N)c1C(=O)Nc1ccc(OC)cc1`, for which the cytotoxicity at 70.5 h came out at 1.52%.

In the case of `O=C1CC(c2ccc3c(c2)OCO3)c2snc(C(=O)O)c2N1` (stereo not drawn), the cytotoxicity at 70.5 h is -10.6%.

Consider `O=C1CC(c2ccc(C(F)(F)F)cc2)c2snc(C(=O)O)c2N1` (stereo not drawn), for which the cytotoxicity at 70.5 h is -15.6%.

`COc1ccc2c(=O)ccn(CC(=O)O)c2c1`: the cytotoxicity at 70.5 h is 1.58%.

As to `COC(=O)CCn1ccc(=O)c2ccccc21`, the cytotoxicity at 70.5 h was -5.76%.

As for `CN1CCN(C(=O)c2cc(-c3cccs3)cs2)CC1`, the cytotoxicity at 70.5 h is -10.5%.

Turning to `O=C(NC1CCS(=O)(=O)C1)c1cc(Sc2ncccn2)ccn1` (stereo not drawn), the cytotoxicity at 70.5 h is -13.4%.

For the compound `Cc1cc(C)n(CC(=O)Nc2cc(-c3ccncc3)[nH]n2)n1`, the cytotoxicity at 70.5 h was -4.82%.

In the case of `Cc1ccn(CC(=O)Nc2cc(-c3ccncc3)[nH]n2)n1`, the cytotoxicity at 70.5 h was -2.4%.

Take `O=C(c1ccc(-c2ccc(O)nc2)s1)N1CCSCC1`: the cytotoxicity at 70.5 h was -14%.

Regarding `Cc1ncc(CN2CCCC(c3nc4ccccc4n3C(C)C)C2)s1` (stereo not drawn), the cytotoxicity at 70.5 h is -2.93%.

With `Cc1cc(N(C)C)nc(C2(C)CCCN2C(=O)c2ccn(C)n2)n1` (stereo not drawn), the cytotoxicity at 70.5 h is -9.18%.

`Cc1ccc(-c2nnc(SCC(=O)O)n2-c2ccccc2)cc1`: the cytotoxicity at 70.5 h is -10.9%.

Regarding `Cc1cnc(N)c(C(=O)C2CCN(C(=O)c3cnc(C)nc3C)CC2)c1`, the cytotoxicity at 70.5 h was -6.36%.

Turning to `Cc1cnc(N)c(C(=O)C2CCN(C(=O)c3cnc(C)cn3)CC2)c1`, the cytotoxicity at 70.5 h is -13%.

Take `NCc1cnn(-c2ccccc2C(=O)NCc2ccccc2Cl)c1`: the cytotoxicity at 70.5 h was -2.58%.

With `COCCN1CCC(c2cncc(-c3cccc(Cl)c3)n2)CC1`, the cytotoxicity at 70.5 h is -5.78%.

Turning to `CN(C)C(=O)CN1CCC(c2cncc(-c3cccc(Cl)c3)n2)CC1`, the cytotoxicity at 70.5 h was -7.08%.

For `CC(C)(C)C(=O)N1CCCC(c2ncncc2-c2ccncc2)C1` (stereo not drawn), the cytotoxicity at 70.5 h is -4.45%.

For `O=C(c1cccnc1)N1CCCC(c2ncncc2-c2ccncc2)C1` (stereo not drawn), the cytotoxicity at 70.5 h is -5.25%.

For `O=C(c1ccccn1)N1CCCC(c2ncncc2-c2ccncc2)C1` (stereo not drawn), the cytotoxicity at 70.5 h was -9.39%.

For `COc1cc(C2Nc3cc(Cl)ccc3C3=NCCN32)cc(OC)c1OC` (stereo not drawn), the cytotoxicity at 70.5 h was 13.6%.

Turning to `COc1ccc(C2Nc3cc(Cl)ccc3C3=NCCN32)cc1CO` (stereo not drawn), the cytotoxicity at 70.5 h stood at 9.73%.

As to `Cc1cc(-c2cnc(N3CCNC(=O)C3)nc2-c2ccncc2)on1`, the cytotoxicity at 70.5 h turned out to be 7.7%.

On to `CN1CCN(c2ncc(-c3cnccn3)c([C@H]3CCCO3)n2)CC1`, for which the cytotoxicity at 70.5 h is -8.8%.

For the compound `Cc1n[nH]c(C)c1-c1cnc(C2CCN(S(C)(=O)=O)CC2)cn1`, the cytotoxicity at 70.5 h is -6.98%.

On to `CC(=O)N1CCC(c2cnc(-c3c(C)nn(C)c3C)cn2)CC1`, for which the cytotoxicity at 70.5 h was -9.85%.

Take `Cc1cc(CCC(N)=O)cc(C2CCCN2Cc2ccccn2)n1` (stereo not drawn): the cytotoxicity at 70.5 h is -9.69%.

With `CC(=O)N1CCCC(c2ccccn2)C1` (stereo not drawn), the cytotoxicity at 70.5 h is 8.66%.

Regarding `Cc1nc(C2CN(C)CCO2)cc(N2CCC(CO)CC2)n1` (stereo not drawn), the cytotoxicity at 70.5 h was -4.15%.

On to `NCCn1nc(C2CCN(Cc3ccccc3)C2)c2nccnc21` (stereo not drawn), for which the cytotoxicity at 70.5 h stood at 0.0423%.

For the compound `CCCC(=O)N1CCC(c2ncc3c(n2)CCNC3)CC1`, the cytotoxicity at 70.5 h was -5.64%.

Take `CCC(=O)N1CCC(Cc2ccccc2-c2ccncc2)(C(=O)NC)C1` (stereo not drawn): the cytotoxicity at 70.5 h was -7.46%.

Take `CN1CCCCC1c1ncc2c(n1)CCN(Cc1ccc(F)cc1)C2` (stereo not drawn): the cytotoxicity at 70.5 h was -5.99%.

`CCCC(=O)N1CCC(Cc2ccccc2-c2ccccc2)(C(N)=O)C1` (stereo not drawn): the cytotoxicity at 70.5 h is -6.16%.

For the compound `COc1cc(C)c(CN2CCc3nc4ccsc4c(=O)n3CC2)cc1C`, the cytotoxicity at 70.5 h was found to be 0.311%.

With `COc1ccc(CN2CCc3nc4ccsc4c(=O)n3CC2)c(C)c1C`, the cytotoxicity at 70.5 h is 39.8%.

Turning to `CC[C@@H]1C[C@H](C(F)(F)F)n2nc(C3CCN(S(=O)(=O)CC)CC3)cc2N1`, the cytotoxicity at 70.5 h worked out at 18.8%.

In the case of `CCC(=O)N1CCC2(CC1)CNC(=O)c1cc(C)ccc1O2`, the cytotoxicity at 70.5 h was -1.62%.

As to `Cc1ccc2c(c1)C(=O)NCC1(CCN(Cc3ccccc3)CC1)O2`, the cytotoxicity at 70.5 h is -6.17%.

Turning to `O=C(Cc1ccccn1)N1CCC(O)(Cn2ccc3ccncc32)CC1`, the cytotoxicity at 70.5 h was -6.87%.

For `Cc1cc2c(=O)n3c(nc2s1)CCN(C(=O)c1cn(C)nc1C)CC3`, the cytotoxicity at 70.5 h is -1.48%.

For the compound `Cc1cc(C(=O)N2CCc3nc4sc(C)cc4c(=O)n3CC2)on1`, the cytotoxicity at 70.5 h was -2.99%.

Turning to `Cc1nc(C)c(C(=O)N2CCc3nc4sc(C)cc4c(=O)n3CC2)o1`, the cytotoxicity at 70.5 h is -4.92%.

Turning to `Cc1cc2c(=O)n3c(nc2s1)CCN(C(=O)c1ccn(C)n1)CC3`, the cytotoxicity at 70.5 h is -5.05%.

For `Cc1cc2c(=O)n3c(nc2s1)CCN(C(=O)c1cnn(C)c1)CC3`, the cytotoxicity at 70.5 h is -7.07%.

On to `Cc1cc2c(=O)n3c(nc2s1)CCN(C(=O)c1sc(C)nc1C)CC3`, for which the cytotoxicity at 70.5 h is -2.56%.

With `C[C@@H]1C[C@H](C(F)(F)F)n2nc(C3CCN(C(=O)C(C)(C)C)CC3)cc2N1`, the cytotoxicity at 70.5 h was -6.86%.

Take `COCC(=O)N1CCC(c2cc3n(n2)[C@@H](C(F)(F)F)C[C@@H](C)N3)CC1`: the cytotoxicity at 70.5 h is -8.82%.

Regarding `O=S1(=O)NC(C2CCN(Cc3ccccn3)CC2)Nc2ccccc21` (stereo not drawn), the cytotoxicity at 70.5 h was -9.26%.

`Cc1ccc(S(=O)(=O)N2C[C@H]3C[C@H](NC(=O)c4ccccn4)[C@H]3C2)cc1`: the cytotoxicity at 70.5 h came out at 56.3%.

For `COc1cccc(CNC(=O)c2ccccc2-n2cc(CN)cn2)c1`, the cytotoxicity at 70.5 h was -2.7%.

`Cn1cnc(CNC(=O)c2ccccc2-n2cc(CN)cn2)c1`: the cytotoxicity at 70.5 h is -5.11%.

Consider `O=C(O)COc1ccccc1CN1CCCC1c1ccncn1` (stereo not drawn), for which the cytotoxicity at 70.5 h was -6.02%.

In the case of `Cc1cc(N)cc(C2CN(Cc3cc[nH]n3)CCO2)n1` (stereo not drawn), the cytotoxicity at 70.5 h was -6.43%.

With `O=C1CO[C@H]2CN(Cc3ccccc3Br)C[C@@H]2N1`, the cytotoxicity at 70.5 h was 20.8%.

On to `Cc1ccccc1CC(=O)N(C)CC1(O)CCCN(c2ccccn2)C1` (stereo not drawn), for which the cytotoxicity at 70.5 h is -5.53%.

In the case of `CN(CC1(O)CCCN(c2ccccn2)C1)C(=O)CCc1cccs1` (stereo not drawn), the cytotoxicity at 70.5 h is -7.41%.

In the case of `Cn1ccnc1CN1CC[C@H](O)[C@@H](n2ccc(=O)[nH]c2=O)CC1`, the cytotoxicity at 70.5 h is -3.14%.

In the case of `CN(CC1(O)CCN(c2ccccn2)C1)C(=O)Cc1ccsc1` (stereo not drawn), the cytotoxicity at 70.5 h was -6.86%.

On to `CC(C)(C)CC(=O)N1CCC(c2nn(CCN)c3nccnc23)C1` (stereo not drawn), for which the cytotoxicity at 70.5 h was -4.08%.

In the case of `CCn1ncc(CN2C[C@@H]3CCCN3C[C@@H]2CCSC)c1C`, the cytotoxicity at 70.5 h was -6.31%.

For `CCn1ncc(CN2C[C@@H]3CCCN3C[C@H]2CCSC)c1C`, the cytotoxicity at 70.5 h came out at 1.32%.

On to `CCc1cc(C(F)(F)F)c2c(C3CCCN(C(=O)COC)C3)noc2n1` (stereo not drawn), for which the cytotoxicity at 70.5 h was -4.44%.

As to `CN(C)C(=O)CN1CCCC(c2cncc(-c3cccc(Cl)c3)n2)C1` (stereo not drawn), the cytotoxicity at 70.5 h was -1.23%.

With `CN1CCC(CN(C)C(=O)c2cc(C3CCCN3C)ccn2)CC1` (stereo not drawn), the cytotoxicity at 70.5 h was -6.76%.

Regarding `Cc1nc(Nc2ncccn2)cc(C2CN(C(=O)c3cccnc3)C2)n1`, the cytotoxicity at 70.5 h is -8.6%.

For the compound `Cc1cc(C(F)(F)F)c2c(C3CCCN(C(=O)C4CC4)C3)noc2n1` (stereo not drawn), the cytotoxicity at 70.5 h is -8.63%.

For `Cc1nc(Nc2nnc(C)s2)cc(C2CCCN2S(C)(=O)=O)n1` (stereo not drawn), the cytotoxicity at 70.5 h is -1.79%.

As for `Cn1ccc2ccnc(CC3CN(C(=O)c4cscn4)C3)c21`, the cytotoxicity at 70.5 h is -2.15%.

On to `CNC(=O)C1CN(Cc2c[nH]cn2)CCN(C2CCOCC2)C1` (stereo not drawn), for which the cytotoxicity at 70.5 h worked out at 14.9%.

With `CN1CCCC(Cc2cncc(C(=O)NC3CC3)c2)C1` (stereo not drawn), the cytotoxicity at 70.5 h was -6.9%.

As to `CCSCCOC(=O)CCCc1ccc2c(c1)CC(=O)N2`, the cytotoxicity at 70.5 h was -12.3%.

Consider `O=C(C1CCCC1)N1CCC(C(O)c2ccc(F)cc2)CC1` (stereo not drawn), for which the cytotoxicity at 70.5 h is -6.02%.

In the case of `CCOC(=O)CCCc1ccc2c(c1)CC(=O)N2`, the cytotoxicity at 70.5 h was -18.2%.

For `COC(=O)C1(NCc2nc(C)c(C)o2)CCC(C)CC1` (stereo not drawn), the cytotoxicity at 70.5 h was -8.62%.

As for `Cc1cc(C(=O)NCC2SCCc3ccccc32)no1` (stereo not drawn), the cytotoxicity at 70.5 h is -14.4%.

Regarding `O=C(NCC1SCCc2ccccc21)c1cscn1` (stereo not drawn), the cytotoxicity at 70.5 h was -13.5%.

Consider `Cn1cc(C(=O)Nc2cccc(-c3ccc4c(c3)CCO4)n2)ccc1=O`, for which the cytotoxicity at 70.5 h was 12%.

For the compound `CCC(O)CN(Cc1cccc(C(=O)N(C)C)c1)c1ccccc1` (stereo not drawn), the cytotoxicity at 70.5 h was -1.87%.

For `CC(O)CN(Cc1cccc(C(=O)N(C)C)c1)c1ccccc1` (stereo not drawn), the cytotoxicity at 70.5 h was -3.2%.

As for `Cc1cc(CN(C)Cc2cnc3c(c2)c(C)nn3C)no1`, the cytotoxicity at 70.5 h was found to be 8.45%.

In the case of `Cn1cc(C2(C)CN(C(=O)COc3ccccc3F)CCO2)cn1` (stereo not drawn), the cytotoxicity at 70.5 h is -4.09%.

Regarding `COc1ccccc1CC1CCCN(C(=O)c2n[nH]c3c2CCC3)C1` (stereo not drawn), the cytotoxicity at 70.5 h is -3.07%.

`COc1ccc(Cl)cc1CCNC(=O)N(C)CC1CCOC1` (stereo not drawn): the cytotoxicity at 70.5 h is -1.13%.

Consider `CCN(CC)C(=O)C1(NCc2nc(C)c(C)o2)CCCCC1`, for which the cytotoxicity at 70.5 h was -4.63%.

Consider `O=S(=O)(NCCCn1cccn1)c1ccc2c(c1)CCC2`, for which the cytotoxicity at 70.5 h is -5.82%.

On to `Cc1cccc(C(C)C)c1NC(=O)NCCN(C(C)C)C(C)C`, for which the cytotoxicity at 70.5 h was -4.96%.

`CC(C)CNC(=O)c1sccc1-n1cnnn1`: the cytotoxicity at 70.5 h was -7.28%.

Consider `O=S(=O)(NCCCn1cncn1)c1ccc2c(c1)OCCO2`, for which the cytotoxicity at 70.5 h was -3.62%.

On to `OC(CNCc1nnc2ccccn12)c1ccc2c(c1)OCO2` (stereo not drawn), for which the cytotoxicity at 70.5 h is -8%.

In the case of `OC(CNCCc1nnc2ccccn12)c1ccc(F)c(F)c1` (stereo not drawn), the cytotoxicity at 70.5 h was -6.79%.

With `CC(CN1CCOC1=O)NC(=O)c1ccccc1Oc1ccccc1` (stereo not drawn), the cytotoxicity at 70.5 h turned out to be 27.1%.

Take `CCNC(=O)c1ccc(NC(=O)N(C)Cc2cc(C)on2)cc1`: the cytotoxicity at 70.5 h is -4.32%.

Consider `CC(OCC1CC1)C(=O)NCCC(=O)Nc1ccccn1` (stereo not drawn), for which the cytotoxicity at 70.5 h is -7.55%.

Consider `COc1ccc(OC)c(CN2CCc3nc4ccsc4c(=O)n3CC2)c1`, for which the cytotoxicity at 70.5 h is 38.7%.

In the case of `Cc1cc(C[C@@H]2COC[C@H]2NCc2ccc(C(C)C)cc2)on1`, the cytotoxicity at 70.5 h is -8.05%.

Consider `COc1cc(CN[C@@H]2COC[C@H]2Cc2cc(C)no2)cc(OC)c1`, for which the cytotoxicity at 70.5 h is -6.2%.

These data come from ChEMBL document CHEMBL3507680, “University of Dundee, Gates Library screen for HepG2 cell viability”.
